Test results from ChEMBL document CHEMBL6092130, “Recent advances in the treatment of gout with NLRP3 inflammasome inhibitors” (Bioorg Med Chem, 2024).
Values belong to the molecule of their own block, whether it stands above or below them.

Tests used:
[1] = Inhibition of NLRP3 inflammasome in mouse J774.A1 cells assessed as inhibition of IL-1 beta secretion; format: cell-based
[2] = Inhibition of NLRP3 inflammasome activation in LPS-induced mouse RAW264.7 cells assessed as downregulation of NLRP3 expression; format: cell-based
RAW264.7 = test: Antiinflammatory activity against mouse RAW264.7 cells assessed as decrease in LPS-induced IL-1beta level at 20 uM incubated for 24 hrs by ELISA relative to control; format: functional; design: scale not given: the % may be the effect or the level left
[3] = Oral bioavailability in human; format: ADME, organism-based; conditions: in vivo
[4] = Inhibition of NLRP3 inflammasome activation in LPS-induced mouse RAW264.7 cells assessed as reduction of NLRP3 expression by Western blot analysis; format: cell-based
[5] = Cytotoxicity against human PBMC cells assessed as reduction in cell viability by CellTiter Glo assay; format: functional, cell-based
[6] = Antiinflammatory activity against LPS-stimulated human MDM cells assessed as inhibition of LPS-induced IL-1beta level at 20 uM incubated for 24 hrs by ELISA relative to control; format: functional; design: scale not given: the % may be the effect or the level left

- IC50 [1]: 8450 nM
Structure (SMILES): COc1ccc(Cl)cc1C(=O)NCCc1ccc(S(=O)(=O)NO)cc1

- IC50 [2]: 147 nM
Structure (SMILES): CNS(=O)(=O)c1ccc(CCNC(=O)c2ccccc2)cc1

- bioavailability [3]: 48.1%
Structure (SMILES): CC(C)C[C@H](NC(=O)[C@H](Cc1ccccc1)NC(=O)c1c(F)cccc1F)B(O)O

- IC50 [4]: 13000 nM
Structure (SMILES): COc1ccc(Cl)cc1C(=O)NCCc1ccc(S(=O)(=O)NC(=O)NC2CCCCC2)cc1 [GLYBURIDE]

- IC50 [2]: 7.5 nM
Structure (SMILES): CC(C)(O)c1coc(S(=O)(=O)NC(=O)Nc2c3c(cc4c2CCC4)CCC3)c1

- IC50 [2]: 550 nM
Structure (SMILES): CCCCN(CCCC)S(=O)(=O)c1ccc(CCNC(=O)c2cc(Cl)ccc2OC)cc1

More lines, now with the values behind:

Structure (SMILES): CC(C)C[C@H](NC(=O)CNC(=O)c1cc(Cl)ccc1Cl)B(O)O [IXAZOMIB]
- Activity (RAW264.7): 77%

Structure (SMILES): COc1ccc(CNS(=O)(=O)c2ccc(CCNC(=O)c3cc(Cl)ccc3OC)cc2)cc1
- IC50 [2]: 450 nM

Structure (SMILES): C=C1C(=O)[C@]23[C@H](O)[C@H]1CC[C@H]2[C@@]12CO[C@]3(O)[C@@H](O)[C@@H]1C(C)(C)CC[C@@H]2O [ORIDONIN]
- IC50 [5]: 5180 nM

Structure (SMILES): CS(=O)(=O)CCC#N
- Activity [6]: 60%
